pIC50: −log10 of the molar value. Counter-ions that a name gives are not always drawn. Blank lines part the entries; values can stand above or below the molecule they belong to.
Legend:
[1] = system: synthesis of LTB4 by rat glycogen-elicited polymorphonuclear leukocytes (PMN); assay: inhibition of LTB4 synthesis by rat glycogen-elicited PMN (Example 72); format: cell-based, rat (female Wistar); conditions: Leukocyte; for inhibition at 500 µM: at 0.5 mM; for inhibition at 10000 µM: at 10 mM, negative number denotes potentiation
Text: This is especially true with respect to 5,12-diHETE, which is also denoted as LTB4 lsee Ford-Hitchinson, J. Roy. Soc. Med., 74, 831 (1981)]. Compounds which inhibit the PLA2 -mediated release of arachidonic acid thereby effectively prevent the oxidation of arachidonic acid to the various leukotriene products via the lipoxygenase cascade. Accordingly, the specificity of action of PLA2 inhibitors can be determined by the activity of test compounds in this assay, which measures the ability of compounds to inhibit the synthesis of LTB4 by rat glycogen-elicited polymorphonuclear leukocytes (PMN) in the presence of exogenous substrate.
The assay is carded out as follows:
(§1) Rat polymorphonuclear leukocytes (PMNs) are obtained from female Wistar rats (150-200 g) which receive an injection of 6% glycogen (10 ml i.p.). Rats are sacrificed 18-24 hours post injection by CO2 asphyxiation and the elicited cells are harvested by peritoneal lavage using physiological saline (0.9% NaC1). The exudate is centrifuged at 400 ×g for 10 minutes. The supernatant fluid is discarded and the cell pellet is resuspended to a concentration of 2.0×10^7 cells/mL in HBSS containing Ca^++ and Mg^++ and 10 mM L-cysteine.
(§2) To 1 mL aliquots of cell suspension, test drugs or vehicle are added, then preincubated at 37° C. for 10 minutes. A23187 (1 mM), [^3 H]-AA (3.0 mCi/mL) and unlabeled AA (1 mM) are then added and the samples are further incubated for 10 minutes. The reaction is terminated by centrifugation and pelleting cells. Supernatants are then analyzed by HPLC analysis on a 15 cm×4.6 mm ID supelcosil LC-18 (Supelco)(3M) column, using a two solvent system at a flow rate of 1.4 mL total flow as follows:
Gradient: (system is equilibrated with Solvent A)
Percent solvent changes are accomplished in a linear fashion.
Injections: […] of each supernatant is injected directly onto column and ^3 H arachidonic acid metabolites are monitored using an on-line radioactivity detector (Ramona, IN/U S, Fairfield, NJ).
Standards: 10^4 -2.0×10^4 dpm of eicosanoids of interest are injected in […] EtOH cocktail.
Co-chromatography with standard [^3 H] leukotriene B4 (LTB4) in medium of stimulated PMN exposed to drug is compared to that found in medium of stimulated cells exposed to no drug, generating percent inhibition.
Results are expressed as percent inhibition at a given compound dose or as an IC50 value.

carrageenan paw edema = assay: rat carrageenan paw edema assay (Example 78); format: in vivo, rat (male Sprague-Dawley)
Protocol: The compounds of the invention are further tested in the rat carrageenan paw edema assay to determine their ability to inhibit the acute inflammatory response.
This assay is carried out as follows: 140-180 g Male Sprague-Dawley rats, in groups of 6 animals are injected subcutaneously in the right paw with 0.1 mL of 1% carrageenan at zero time. Mercury plethysmographic readings (mL) of the paw are made at zero time and 3 hours later. Test compounds are suspended or dissolved in 0.5% methylcellulose and given perorally 1 hour prior to carrageenan administration.
The increase in paw volume (edema in mL) produced by the carrageenan is measured. Paw edema is calculated (3 hour volume minus zero time volume), and percent inhibition of edema is determined. Unpaired Student's t-test is used to determine statistical significance.

[2] = system: cyclooxygenase (PGE2 synthesis) in rat polymorphonuclear leukocytes (PMN); assay: inhibition of PGE2 synthesis (cyclooxygenase) by rat glycogen-elicited PMN (Example 73); format: cell-based, rat (female Wistar); conditions: Leukocyte, * (negative) denotes a potentiation; for inhibition at 500 µM: at 0.5 mM; for inhibition at 10000 µM: at 10 mM, read-out: % Inhibition (PGE2 synthesis)
Protocol: as §1, §2
In this assay, the procedure of Example 72 is carried out as described. However, in order to determine cyclooxygenase activity, the samples are cochromatographed with authentic reference [^3 H]-PGE2.
The results be calculated as in Example 72 and presented below: […]

[3] = target: T1, LTD4 (isolated guinea pig trachea) (Cavia porcellus, UniProt Q2NNR5); assay: in vitro isolated guinea pig trachea assay, LTD4 antagonism (Example 77); design: from tissue; host or cells: isolated trachea rings of male Hartley guinea pigs; species or system guinea pig (male Hartley); conditions: Table VII; 1 × 10^-5 M
T1 sequence (Q2NNR5 1-340): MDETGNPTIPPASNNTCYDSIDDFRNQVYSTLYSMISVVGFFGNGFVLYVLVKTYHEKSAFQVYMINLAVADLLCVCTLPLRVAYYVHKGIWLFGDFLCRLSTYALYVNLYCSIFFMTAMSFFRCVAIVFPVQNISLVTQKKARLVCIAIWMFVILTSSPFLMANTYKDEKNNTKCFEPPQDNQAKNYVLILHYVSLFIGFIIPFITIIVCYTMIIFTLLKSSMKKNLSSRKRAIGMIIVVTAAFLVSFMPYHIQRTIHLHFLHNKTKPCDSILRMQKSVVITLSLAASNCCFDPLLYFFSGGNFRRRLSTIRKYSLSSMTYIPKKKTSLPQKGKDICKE
Protocol: The LTD4 antagonist activity of the compounds of the invention is assessed in the in vitro isolated guinea pig trachea assay. This assay is carried out as follows: Male Hartley guinea pigs (350-400 g) are euthanized by a blow to the head, the neck is opened and the trachea removed. The trachea is maintained in aerated physiological salt solution, cleared of connective tissue and fat and cut into tings approximately 2 nxn in width (usually containing two cartilaginous segments per ting). Two pieces of silk suture are then passed through the lumen of the tracheal ring and are tied around the cartilage, one on each side of the trachealis muscle. The tracheal ting is suspended between a glass hook and a force […] transducer in a 10 mL organ bath for measurement of isometric tension. […] The tracheal […] maintained at 2 g resting tension and equilibrated for 45 minutes (with frequent washing and readjustment of resting tension). The tracheal rings are first contracted by the addition of carbachol (3×10^-6 M), to determine tissue responsiveness and establish a reference contraction. On attainment of a stable level of contraction (approximately 30 minutes), the tissues are washed several times until baseline tension has been restored and then re-equilibrated for 30 minutes. The tissues are then incubated for 45 minutes with a test antagonist (either 1×10^-6 M or 1×10^-5 M) or […] of an appropriate solvent control (control, non-treated). One tissue in each group serves as the control. Twenty minutes prior to the construction of the LTD4 cumulative concentration-response curve, L-[…]×10^-2 M final bath concentration) is added to inhibit bioconversion of LTD4 to LTE4. Only one LTD4 concentration-response curve is constructed in each tissue. All responses to LTD4 in an individual tissue are measured as a percentage of the reference contraction of that tissue to carbachol. LTD4 antagonist activity is determined by comparison of the concentration response curves of LTD4 in the presence and absence of antagonist. Assessment of the relative rightward shift of the antagonist treated curve relative to the solvent (control) treated tissue is calculated as a concentration ratio (Eq. A) and used in subsequent calculations to derive an antagonist pKB value (Eqs B and C). […] If a compound is found to be active and/or depress the maximal response to LTD4, then a range of concentrations of the test compound should be used generating multiple concentration ratios which would then be used to perform a Schild analysis, and determination of a pA2 value where appropriate.

[4] = system: 5-lipoxygenase in human whole blood; assay: inhibition of 5-lipoxygenase in human whole blood (Example 79); format: cell-based; conditions: for % Inhibition of LTB4: 25 μM
Summary of the method: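 Donor whole blood pre-incubated 10 min at 37° C with compound (0.1% DMSO final), then stimulated with […] calcium ionophore A23187 for 20 min at 37° C; stopped on ice with EGTA. Plasma LTB4, TxB2 and PGE2 measured by RIA or ELISA as ng/10^6 neutrophils; effects expressed as percent change from control.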

[5] = target: T2, human synovial fluid PLA2 (Homo sapiens, UniProt P14555); assay: in vitro isolated phospholipase A2 assay, human synovial fluid PLA2 (Example 74); format: biochemical; design: inhibition / % Inhibition, HSF (human synovial fluid): dose or concentration left out as unconfirmed; conditions: for inhibition: read-out: % Inhibition, HSF (human synovial fluid)
T2 sequence (P14555 21-144): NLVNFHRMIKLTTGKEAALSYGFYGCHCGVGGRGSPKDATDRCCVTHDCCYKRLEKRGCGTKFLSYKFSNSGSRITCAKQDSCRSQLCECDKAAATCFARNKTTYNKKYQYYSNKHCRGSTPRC
Summary of the method: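 Human synovial fluid PLA2 (purified) acts on ³H-arachidonate-labelled E. coli substrate, 10 minutes at 37° C with shaking; stopped with tetrahydrofuran. Released arachidonic acid is isolated on NH2 columns, eluted with tetrahydrofuran/2% acetic acid and quantitated by β-counting against a total-counts sample.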

human platelet PLA2 = target: T3, human platelet PLA2 (Homo sapiens, UniProt P14555); assay: in vitro isolated phospholipase A2 assay, human platelet PLA2 (Example 74); format: biochemical; design: dose or concentration left out as unconfirmed; conditions: read-out: % Inhibition, HP (human platelet)
T3 construct: Semi-purified human platelet acid extract PLA2; from tissue; host or cells: human platelets (semi-purified acid extract)
T3 sequence (P14555 21-144): T2 sequence (P14555 21-144)
Summary of the method: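 Semi-purified human platelet acid-extract PLA2 (pH 4.5 acetate) was incubated with ³H-arachidonate-labelled E. coli substrate for 10 min at 37° C. The reaction was terminated with tetrahydrofuran. Released arachidonic acid was isolated on NH2 columns and quantified by β-counting against total counts.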

[6] = system: paw edema induced by PLA2 from the diamond back cotton mouth snake (A. piscivorus piscivorus); assay: in vivo PLA2 murine paw edema assay (Example 75); design: species or system mouse (male CD-1); conditions: 30 mg/kg i.p.; 30 min

SMILES: CCc1cccc2c3c([nH]c12)C(CC)(CC(=O)O)OCC3 (stereo not drawn) [etodolac, reference compound]
- inhibition at 500 µM [1]: 21%
- ED50 (carrageenan paw edema; Rattus norvegicus, 3 h, oral, Table VIII): 23 mg/kg
- inhibition at 500 µM [2]: 100%

- Kb [3]: 3980 nM
- inhibition [5]: 2%
SMILES: CCOC(=O)Cc1c(C)n(Cc2ccccc2)c2ccc(OCc3nc4ccccc4s3)cc12 [Example 50, 5-(2-Benzothiazolylmethoxy)-1-(phenylmethyl)-2-methyl-1H-indole-3-acetic acid ethyl ester]
- % Inhibition of LTB4 [4]: 95%

- Kb [3]: 1000 nM
SMILES: Cc1c(CC(=O)O)c2cc(OCc3ccc4ccccc4n3)ccc2n1Cc1ccc(Cl)cc1 [Example 43, 1-[(4-Chlorophenyl)methyl]-2-methyl-5-(2-quinolinylmethoxy)-1H-indole-acetic acid tromethamine salt hemi-ethanolate]

- Kb [3]: 550 nM
SMILES: CCC1(CC(=O)O)OCCc2c1[nH]c1ccc(OCc3ccc4ccccc4n3)cc21 (stereo not drawn) [Example 9, 1-Ethyl-1,3,4,9-tetrahydro-6-(quinolinylmethoxy)pyrano[3,4-b]indole-1-acetic acid]
- inhibition at 10000 µM [1]: 96%
- inhibition at 10000 µM [2]: 75%

- Kb [3]: 2510 nM
- pIC50 ([4]; human whole blood, read-out: IC50 (inhibition of LTB4)): 4.70
- inhibition [5]: 12%
SMILES: CCN(CC)C(=O)Cc1c(C)n(Cc2ccccc2)c2ccc(OCc3nc4ccccc4s3)cc12 [Example 52, 5-(2-Benzothiazolylmethoxy)-N,N-diethyl-1-(phenylmethyl)-2-methyl-1H-indole-3-acetamide]
- % Inhibition of LTB4 [4]: 68%

SMILES: CC1(C)OCCc2c1[nH]c1ccc(OCc3ccc4ccccc4n3)cc21 [Example 14, 1,3,4,9-Tetrahydro-1,1-dimethyl-6-(2-quinolinylmethoxy)pyrano[3,4-b]indole]
- inhibition at 10000 µM [1]: 91%
- % Inhibition 50 mg/kg (peroral) (carrageenan paw edema; 50 mg/kg peroral, 3 hours after carrageenan): 27%
- inhibition at 10000 µM [2]: -48%

SMILES: Cc1c(CC(=O)O)c2cc(OCc3ccc4ccccc4n3)ccc2n1Cc1ccc2ccccc2n1 [Example 18, 2-Methyl-5-(2-quinolinylmethoxy)-1,2-(quinolinylmethy)-1H-indole-3-acetic acid]
- inhibition (human platelet PLA2): 47%
- Kb [3]: 1410 nM
- inhibition at 500 µM [1]: 88%
- inhibition at 500 µM [2]: -31%
- pIC50 ([5]; Table III, read-out: IC50 HSF (human synovial fluid)): 4.57
- inhibition [5]: 30%
- % Change in Edema [6]: -19%

— US5420289A, “Substituted indole-, indene-, pyranoindole- and tetrahydrocarbazole-alkanoic acid derivatives as inhibitors of PLA2 and lipoxygenase” (American Home Products Corporation, priority 1993, dated 1995)
